The nature of this experiment: Antimicrobial activity assay: whole-cell broth microdilution MIC (CLSI M7-A7). In kind it is cell-based. The settings on record: for at least one strain of one organism listed, serial two-fold dilutions 0.064 to 64 μg/ml, in the presence of 20 uM human apo-Transferrin, tested in at least one exemplified salt or free base form, read-out: MIC (minimum inhibitory concentration). The protocol:
Antimicrobial Activity Assay
Whole-cell antimicrobial activity was determined by broth microdilution using the Clinical and Laboratory Standards Institute (CLSI) recommended procedure, Document M7-A7, “Methods for Dilution Susceptibility Tests for Bacteria that Grow Aerobically”. In some cases, broth microdilution MICs were determined using IsoSensitest broth (Oxoid) in place of CLSI recommended cation adjusted Mueller-Hinton broth. The compounds were tested in serial two-fold dilutions ranging from 0.064 to 64 μg/ml in the presence of 20 uM human apo-Transferrin (Sigma T-1147).
Compounds were evaluated against Gram-negative organisms selected from Escherichia coli, Pseudomonas aeruginosa, Proteus mirabilis, Enterobacter cloacae, Enterobacter aerogenes, Klebsiella pneumoniae, Stenotrophomonas maltophilia, Acinetobacter baumanii, Serratia marascens, Citrobacter freundii, and Klebsiella oxytoca.
The minimum inhibitory concentration (MIC) was determined as the lowest concentration of compound that inhibited visible growth. A mirror reader was used to assist in determining the MIC endpoint.
Each of the listed Examples 1 to 56 and 59 to 61 identified in the present application, were tested in at least one exemplified salt or free base form.
Background: Broth dilution looks for growth in wells or tubes with falling amounts of substance.

Structures are written as SMILES. Where a name gives a salt, the structure may show the parent alone.

In the case of `Cn1cc(O)c(=O)c2cc(C[N+]3(CC4=C(C(=O)[O-])N5C(=O)[C@@H](NC(=O)/C(=N\O[C@@H](CC(=O)O)C(=O)O)c6csc(N)n6)[C@H]5SC4)CCCC3)ccc21` [Example 5, (6R,7R)-7-((Z)-2-(2-aminothiazol-4-yl)-2-(((S)-1,2-dicarboxyethoxy)imino)acetamido)-3-((1-((3-hydroxy-1-methyl-4-oxo-1,4-dihydroquinolin-6-yl)methyl)pyrrolidin-1-ium-1-yl)methyl)-8-oxo-5-thia-1-azabicyclo[4.2.0]oct-2-ene-2-carboxylate, 3 Sodium salt], the MIC was no more than 8 µg/mL.

Values taken from patent US9340556B2, “Antibacterial compounds” (GLAXO GROUP LIMITED, priority 2011, dated 2016).
